# Like-named read-outs stand apart in the source and are kept apart here.
# How the values were obtained:
# [1] = administration of nilotinib in a fruit preparation, human subjects
# Experimental: All treatments were administered with 240 mL of water, in the morning, after an overnight fast of at least 10 hours. Subjects continued to fast until 4 hours after administration. […] Consumption of grapefruit, grapefruit juice, or any caffeinated beverages within 48 hours of study initiation was prohibited.
# At each time point, 2.5 mL of whole blood was drawn using a Serum Separator Vacutainer® (Becton, Dickinson and Company, Franklin Lakes, N.J., USA) tube. The tube was allowed to stand vertically at room temperature for 30 minutes prior to centrifugation at 5° C. for 10 minutes at 1100 g. Immediately after centrifugation, the upper serum sample was transferred and stored frozen at ≦−15° C. until shipped to the analytical site for sample analyses.
# The MTBE layer was transferred, evaporated to dryness, and reconstituted with 400 μl of an acetonitrile and 0.2% formic acid mixture (40:60, v/v). Chromatography was carried out using a Phenomenex Synergi™ Polar-RP column (particle size 4 μm, 50 mm×2 mm i.d.) (Phenomenex, Inc, Torrance, Calif.) held at room temperature. Elution of the analytes was performed using a isocratic elution at a flow rate of 0.5 mL/min with mobile phases of 0.2% formic acid in 10 mM aqueous ammonium formate: 0.2% formic acid in acetonitrile (60:40, v/v).
# [2] = 400 mg oral capsule, cited from earlier work
# [3] = concurrent intake of grapefruit juice; cited from earlier work
# [4] = light breakfast given 30 minutes prior to dosing
smiles,measurement,setting,value
"Cc1cn(-c2cc(NC(=O)c3ccc(C)c(Nc4nccc(-c5cccnc5)n4)c3)cc(C(F)(F)F)c2)cn1 [nilotinib, 4-methyl-3-[[4-(3-pyridinyl)-2-pyrimidinyl]amino]-N-[5-(4-methyl-1H-imidazol-1-yl)-3-(trifluoromethyl)-phenyl]benzamide]",safety and tolerability,[1],safe and well tolerated
same,increase in Cmax,[2]; after a high fat breakfast,112%
same,increase in total exposure (AUC0-t),[2]; after a high fat breakfast,82%
same,increase in Cmax,[2]; [4],55%
same,increase in total exposure (AUC0-t),[2]; [4],29%
same,AUC increase,[3],29%
same,Cmax increase,[3],60%

# — patent US9061029B2, “Method of treating proliferative disorders and other pathological conditions mediated by Bcr-Abl, c-Kit, DDR1, DDR2 or PDGF-R kinase activity” (Novartis AG, priority 2009, dated 2015)
